The values below come from patent US6664283B1, “Pharmaceuticals for neurogenic pain” (Yamanouchi Pharmaceutical Co., Ltd., priority 1999, dated 2003).

Assay [1] concerns nerve ligation-induced neuropathic pain animal models. The conditions noted are these: cited from earlier work; for cold hyperalgesia / development of mechanical allodynia: intrathecal twice-daily on post-operative days 0-8.
A further assay deals with T1, mGluR7 (Rattus norvegicus, UniProt P35400).
T1 construct: expressed in transfected cells; host or cells: CHO
T1 sequence (P35400 35-915): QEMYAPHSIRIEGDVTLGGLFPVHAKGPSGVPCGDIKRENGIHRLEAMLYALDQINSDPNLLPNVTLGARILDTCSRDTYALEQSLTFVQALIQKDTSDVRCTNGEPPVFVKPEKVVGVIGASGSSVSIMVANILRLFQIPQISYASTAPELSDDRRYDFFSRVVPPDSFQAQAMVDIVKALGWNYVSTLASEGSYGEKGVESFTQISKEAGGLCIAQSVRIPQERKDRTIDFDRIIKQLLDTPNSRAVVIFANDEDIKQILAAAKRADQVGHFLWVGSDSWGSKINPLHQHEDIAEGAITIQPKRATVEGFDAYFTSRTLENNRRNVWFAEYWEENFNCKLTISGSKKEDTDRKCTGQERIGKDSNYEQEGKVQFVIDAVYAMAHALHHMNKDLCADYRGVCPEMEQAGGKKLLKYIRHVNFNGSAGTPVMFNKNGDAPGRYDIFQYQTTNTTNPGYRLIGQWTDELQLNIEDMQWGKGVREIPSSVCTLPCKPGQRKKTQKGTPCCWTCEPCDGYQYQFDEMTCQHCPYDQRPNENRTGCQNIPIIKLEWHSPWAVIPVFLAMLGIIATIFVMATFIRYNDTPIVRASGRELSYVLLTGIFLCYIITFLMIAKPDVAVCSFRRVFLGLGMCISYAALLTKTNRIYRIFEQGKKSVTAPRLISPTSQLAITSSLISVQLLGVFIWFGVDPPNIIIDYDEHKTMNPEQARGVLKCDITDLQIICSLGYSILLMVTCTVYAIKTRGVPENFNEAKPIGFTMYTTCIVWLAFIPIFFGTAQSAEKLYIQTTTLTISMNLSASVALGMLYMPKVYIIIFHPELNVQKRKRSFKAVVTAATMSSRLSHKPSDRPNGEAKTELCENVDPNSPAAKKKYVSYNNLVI
In words: intracellular cAMP after forskolin stimulation in mGluR7-expressing CHO cells. The class given is cell-based. The conditions noted are these: up to 100 μM; cAMP formation. As for the experimental part: (§1) The NIH3T3 cell lines expressing individually mGluR1 α and mGluR5a were cultured using DMEM containing 10% dialyzed fetal calf serum and 100 units/ml, 0.1 mg/ml of streptomycin sulfate. The CHO cell lines expressing individually mGluR2, R4, R6 and R7 were cultured using DMEM containing 10% dialyzed fetal calf serum, 100 units/ml, 0.1 mg/ml of streptomycin sulfate and 2 mM glutamine. Using cell lines expressing individually mGluR2, R6 and R7, cAMP formation after forskolin stimulation in the presence of IBMX was measured using a cAMP assay kit as described previously (Neuron, 8, 169-179, 1992).

Assay [2] deals with STZ-induced diabetes mice. Nature of the assay: tail pinch test in STZ-induced diabetes mice model. The class given is in vivo, ICR mice. The conditions noted are these: 45 minutes after administration, STZ mice day 15. As to the method: The test was carried out by modifying a previously reported method (Pharmacol. Biochem. Behav., 39, 541-544, 1991). STZ at a dose of 200 mg/kg was intraperitoneally administered to 4-weeks-old ICR mice. A pre-drug tail pinch test was carried out in the afternoon at the fourteenth day after the STZ-administration, and animals showing a reaction latency of 3 seconds or less were subjected to the next day's test. At the fifteenth day after the STZ-administration, each drug was administered orally and a post-drug tail pinch test was carried out 45 minutes after the drug administration. […] Statistical analysis was performed with Steel test between the control group and drug-administered group (* and ** in the table are as follows; *p<0.05, **p<0.01 vs. control group).

Another assay concerns the target T2, mGluR6 (Rattus norvegicus, UniProt P35349).
T2 construct: expressed in transfected cells; host or cells: CHO
In words: intracellular cAMP after forskolin stimulation in mGluR6-expressing CHO cells. The class given is cell-based. The conditions noted are these: up to 100 μM; cAMP formation. As for the experimental part: as §1

Assay [3] deals with spinal L5/L6 nerve-ligated rats. In words: von Frey hair (VFH) test in spinal L5/L6 nerve-ligated rats. The class given is in vivo, SD rats. The conditions noted are these: 30 or 100 mg/kg po; 45 minutes after administration; 7 days after operation. As for the experimental part:
The test was carried out by modifying a previously reported method (Pain, 50, 355-363, 1992). SD rats were used. The left side lumbar nerves (L5 and L6) of each animal were ligated with silk threads under pentobarbital anesthesia. The following test was carried out 7 days after the operation.
After 45 minutes of oral administration of drug, von Frey hair (VFH) test was carried out to measure a mechanical pain threshold. The measurement was carried out on both hindpaws.
Although there was little difference in the mechanical pain thresholds between the left and right hindpaw in sham-operated rats in which the threshold was 17 to 20 g (log(g): 1.23-1.30), the obvious reduction of the mechanical pain threshold in the operated side hinpaw was found in spinal L5/L6 nerve-ligated rats.
Statistical analysis was performed with Dunnet test and carried out on each side hindpaw between the control group and drug-administered groups (** and *** in the table are as follows; **p<0.01, ***p<0.001 vs. control group).

A further assay deals with T3, mGluR2 (Rattus norvegicus, UniProt P31421).
T3 construct: expressed in transfected cells; host or cells: CHO
T3 sequence (P31421 19-872): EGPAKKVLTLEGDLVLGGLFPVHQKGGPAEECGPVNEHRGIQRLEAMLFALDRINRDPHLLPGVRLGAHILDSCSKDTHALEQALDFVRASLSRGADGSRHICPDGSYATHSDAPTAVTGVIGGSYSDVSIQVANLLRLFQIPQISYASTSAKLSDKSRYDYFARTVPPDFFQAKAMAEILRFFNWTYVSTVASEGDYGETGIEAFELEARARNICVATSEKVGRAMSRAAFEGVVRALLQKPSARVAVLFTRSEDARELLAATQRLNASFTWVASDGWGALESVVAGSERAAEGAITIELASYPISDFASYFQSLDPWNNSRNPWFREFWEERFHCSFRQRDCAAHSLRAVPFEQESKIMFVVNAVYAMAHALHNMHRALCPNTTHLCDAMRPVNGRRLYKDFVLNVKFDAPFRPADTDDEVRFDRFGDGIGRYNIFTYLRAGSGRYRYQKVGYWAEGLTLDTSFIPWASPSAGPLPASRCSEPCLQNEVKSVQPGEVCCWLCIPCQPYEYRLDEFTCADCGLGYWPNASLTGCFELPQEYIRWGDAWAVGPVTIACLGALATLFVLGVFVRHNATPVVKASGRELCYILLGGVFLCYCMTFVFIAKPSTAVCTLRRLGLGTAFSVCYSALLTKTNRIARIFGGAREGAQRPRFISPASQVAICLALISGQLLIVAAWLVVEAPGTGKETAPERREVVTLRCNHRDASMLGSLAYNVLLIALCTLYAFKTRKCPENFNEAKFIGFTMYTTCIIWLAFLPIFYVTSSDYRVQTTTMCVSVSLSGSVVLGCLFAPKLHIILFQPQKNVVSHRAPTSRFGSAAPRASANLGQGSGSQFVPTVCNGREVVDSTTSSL
In words: intracellular cAMP after forskolin stimulation in mGluR2-expressing CHO cells. The format is cell-based. The conditions noted are these: up to 100 μM; cAMP formation. As to the method:
as §1

For the next assay, the target named is T4, mGluR5a (Rattus norvegicus, UniProt P31424).
T4 construct: expressed in transfected cells; host or cells: NIH3T3
T4 sequence (P31424 21-1171 isoform P31424-2 limits assumed): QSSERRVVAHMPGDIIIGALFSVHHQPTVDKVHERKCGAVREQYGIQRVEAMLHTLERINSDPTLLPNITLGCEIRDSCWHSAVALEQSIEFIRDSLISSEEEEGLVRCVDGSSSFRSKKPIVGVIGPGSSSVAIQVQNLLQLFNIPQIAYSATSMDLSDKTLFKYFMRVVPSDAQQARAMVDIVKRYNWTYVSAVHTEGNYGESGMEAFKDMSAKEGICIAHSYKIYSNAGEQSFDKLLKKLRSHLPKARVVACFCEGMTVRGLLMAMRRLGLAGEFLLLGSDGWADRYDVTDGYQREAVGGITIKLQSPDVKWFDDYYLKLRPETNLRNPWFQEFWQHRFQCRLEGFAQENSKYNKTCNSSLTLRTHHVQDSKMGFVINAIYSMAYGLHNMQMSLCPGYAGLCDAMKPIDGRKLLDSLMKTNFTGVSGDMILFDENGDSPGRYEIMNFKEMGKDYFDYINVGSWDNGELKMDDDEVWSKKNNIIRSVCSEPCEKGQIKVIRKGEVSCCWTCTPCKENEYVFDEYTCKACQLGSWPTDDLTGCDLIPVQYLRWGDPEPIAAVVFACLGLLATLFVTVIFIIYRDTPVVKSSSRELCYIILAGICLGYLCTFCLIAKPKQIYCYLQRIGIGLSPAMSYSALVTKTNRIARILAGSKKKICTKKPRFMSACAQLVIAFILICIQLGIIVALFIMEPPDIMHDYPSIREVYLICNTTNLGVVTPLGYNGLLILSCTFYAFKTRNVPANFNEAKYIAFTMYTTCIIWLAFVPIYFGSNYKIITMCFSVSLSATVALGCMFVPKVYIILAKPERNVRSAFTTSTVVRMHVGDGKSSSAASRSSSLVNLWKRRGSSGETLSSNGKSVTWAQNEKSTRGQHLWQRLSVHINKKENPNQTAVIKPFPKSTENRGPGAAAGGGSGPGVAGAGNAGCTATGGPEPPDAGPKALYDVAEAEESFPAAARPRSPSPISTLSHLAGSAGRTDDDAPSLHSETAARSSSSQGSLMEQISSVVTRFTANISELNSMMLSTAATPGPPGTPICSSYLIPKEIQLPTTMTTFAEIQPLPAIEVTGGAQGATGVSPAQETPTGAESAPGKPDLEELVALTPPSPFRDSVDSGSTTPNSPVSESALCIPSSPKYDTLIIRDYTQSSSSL
Nature of the assay: intracellular calcium concentration in mGluR5a-expressed NIH3T3 cells. The class given is cell-based. The conditions noted are these: up to 10 μM. As for the experimental part:
The NIH3T3 cell lines expressing individually mGluR1 α and mGluR5a were cultured using DMEM containing 10% dialyzed fetal calf serum and 100 units/ml, 0.1 mg/ml of streptomycin sulfate. The CHO cell lines expressing individually mGluR2, R4, R6 and R7 were cultured using DMEM containing 10% dialyzed fetal calf serum, 100 units/ml, 0.1 mg/ml of streptomycin sulfate and 2 mM glutamine. Intracellular calcium concentration of the mGluR5a-expressed cells was measured using a spectrofluorometer as described previously (Nature, 383, 89-92, 1996).

Another assay deals with T5, mGluR1 (Rattus norvegicus, UniProt P23385).
T5 construct: endogenous in cells; host or cells: primary cerebellar granule cells from Wistar rats aged 7 to 8 days
T5 sequence (P23385 19-1199): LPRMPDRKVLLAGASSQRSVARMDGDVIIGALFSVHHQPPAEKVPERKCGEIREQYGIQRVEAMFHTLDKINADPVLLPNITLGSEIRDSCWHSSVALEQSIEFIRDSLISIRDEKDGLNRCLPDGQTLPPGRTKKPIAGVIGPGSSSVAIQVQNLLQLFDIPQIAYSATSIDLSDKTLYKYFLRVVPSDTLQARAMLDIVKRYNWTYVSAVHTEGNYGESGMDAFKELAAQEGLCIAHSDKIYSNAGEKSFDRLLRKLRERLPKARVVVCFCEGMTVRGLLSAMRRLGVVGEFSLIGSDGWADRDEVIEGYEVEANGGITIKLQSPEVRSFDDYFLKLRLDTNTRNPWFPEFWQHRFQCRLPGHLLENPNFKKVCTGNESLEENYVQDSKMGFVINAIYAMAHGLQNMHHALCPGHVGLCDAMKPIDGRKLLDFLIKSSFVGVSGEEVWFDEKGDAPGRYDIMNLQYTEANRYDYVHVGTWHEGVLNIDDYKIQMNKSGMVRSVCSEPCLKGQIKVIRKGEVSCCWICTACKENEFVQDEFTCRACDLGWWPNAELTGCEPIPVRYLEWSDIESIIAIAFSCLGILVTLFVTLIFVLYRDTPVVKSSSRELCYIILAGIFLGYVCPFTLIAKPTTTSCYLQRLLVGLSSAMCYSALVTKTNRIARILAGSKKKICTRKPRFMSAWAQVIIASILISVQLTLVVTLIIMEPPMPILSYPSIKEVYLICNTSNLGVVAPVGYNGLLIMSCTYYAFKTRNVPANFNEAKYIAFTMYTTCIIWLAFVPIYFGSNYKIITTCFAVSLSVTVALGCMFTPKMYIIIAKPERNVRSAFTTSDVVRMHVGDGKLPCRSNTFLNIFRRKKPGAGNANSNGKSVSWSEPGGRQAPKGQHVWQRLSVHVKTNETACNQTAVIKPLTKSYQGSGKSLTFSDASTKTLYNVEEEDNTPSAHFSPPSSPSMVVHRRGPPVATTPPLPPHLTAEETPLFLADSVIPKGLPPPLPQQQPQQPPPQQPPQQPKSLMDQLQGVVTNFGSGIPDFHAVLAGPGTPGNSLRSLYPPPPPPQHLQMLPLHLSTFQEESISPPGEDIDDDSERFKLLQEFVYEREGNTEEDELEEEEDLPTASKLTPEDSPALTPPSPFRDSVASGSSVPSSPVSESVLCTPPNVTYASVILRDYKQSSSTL
Nature of the assay: PI hydrolysis assay in cerebellar granule cells (mGluR1 antagonistic activity). The format is cell-based. As for the experimental part: 1. Measurement of mGluR1 Antagonistic Activity Using Cerebellar Granule Cells The whole brain was removed from each of seven Wistar rats of 7 to 8 days of age after birth (Japan S L C), and then the cerebellum was isolated in an L-15 medium (Gibco) under a stereoscopic microscope. The isolated cerebellum was cut into pieces using a surgical knife and incubated at 37° C. for 15 minutes in 0.25% trypsin solution (Gibco) containing 750 U/ml of DNase I (Sigma). After termination of the enzyme reaction by adding fetal calf serum (JRH Biosciences), the tissue pieces were centrifuged and the supernatant was removed by sucking. After adding 10 ml of a high potassium medium, cells were dissociated by 5 to 6 times passage through a plastic pipette. After filtering the cell dispersion through a nylon mesh (40 μm pore), viable cells were counted. The cells were diluted in the high potassium medium and then seeded at a density of 8×10^5 cells/well onto 24-well culture plates (Sumitomo Bakelite) precoated with poly-L-lysine. […] High potassium medium: BME (Gibco)+10% immobilized fetal calf serum+25 mM KCl+1% penicillin/streptomycin (Gibco) The PI hydrolysis was measured as described by Aramori et al(Neuron, 8, 757-765, 1992). […] The eluate was mixed with a liquid scintillator (Aquasol-2) and the radioactivity in the eluate was determined by a liquid scintillation spectrometer.

In a further assay the target is T6, mGluR1 α (Rattus norvegicus, UniProt P23385).
T6 construct: expressed in transfected cells; host or cells: NIH3T3
T6 sequence (P23385 19-1199): as above
In words: PI hydrolysis assay in mGluR1 α-expressed NIH3T3 cells. The format is cell-based. The conditions noted are these: 100 μM glutamate, read-out: IC50 value, inhibition of PI formation induced by 100 μM glutamate. As to the method:
Measurement of inhibition activity by mGluR1 α expression cell The NIH3T3 cell lines expressing individually mGluR1 α and mGluR5a were cultured using DMEM containing 10% dialyzed fetal calf serum and 100 units/ml, 0.1 mg/ml of streptomycin sulfate. The CHO cell lines expressing individually mGluR2, R4, R6 and R7 were cultured using DMEM containing 10% dialyzed fetal calf serum, 100 units/ml, 0.1 mg/ml of streptomycin sulfate and 2 mM glutamine. Using the mGluR1 α-expressed cells labeled with ^3H-inositol, hydrolysis of phosphatidylinositol was measured as described previously(Nature, 383, 89-92, 1996).

Like-named read-outs stand apart in the source and are kept apart here.

T2 sequence (P35349 24-871): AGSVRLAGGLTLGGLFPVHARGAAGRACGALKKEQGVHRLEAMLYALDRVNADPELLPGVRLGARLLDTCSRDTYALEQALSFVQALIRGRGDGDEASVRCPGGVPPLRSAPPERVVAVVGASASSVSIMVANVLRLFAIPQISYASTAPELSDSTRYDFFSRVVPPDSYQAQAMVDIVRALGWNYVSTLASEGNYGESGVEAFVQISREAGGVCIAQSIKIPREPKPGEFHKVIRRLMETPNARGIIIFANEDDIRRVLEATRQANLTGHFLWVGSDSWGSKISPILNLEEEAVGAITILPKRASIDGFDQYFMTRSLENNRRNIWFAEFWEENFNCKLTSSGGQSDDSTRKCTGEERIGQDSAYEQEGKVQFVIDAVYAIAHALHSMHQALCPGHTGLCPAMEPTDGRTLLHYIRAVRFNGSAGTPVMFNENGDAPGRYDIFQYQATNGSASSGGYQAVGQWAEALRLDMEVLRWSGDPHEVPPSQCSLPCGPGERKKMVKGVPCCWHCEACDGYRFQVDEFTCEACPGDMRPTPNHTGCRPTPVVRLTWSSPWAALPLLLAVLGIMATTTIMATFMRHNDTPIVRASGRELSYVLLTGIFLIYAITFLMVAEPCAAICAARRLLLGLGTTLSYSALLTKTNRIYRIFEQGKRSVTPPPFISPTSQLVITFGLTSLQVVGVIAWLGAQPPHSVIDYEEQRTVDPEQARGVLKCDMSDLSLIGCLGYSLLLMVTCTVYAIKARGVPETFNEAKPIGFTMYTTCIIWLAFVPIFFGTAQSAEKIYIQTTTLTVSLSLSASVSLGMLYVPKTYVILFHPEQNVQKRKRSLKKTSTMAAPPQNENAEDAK

On to `N[C@H](C(=O)O)c1ccc(C(=O)O)cc1` [(S)-4CPG, (S)-4-carboxyphenylglycine], for which, in assay [1] (assessed on days 4 and 8), the cold hyperalgesia entry was “attenuated cold hyperalgesia” and the “development of mechanical allodynia” value was “inhibited a development of mechanical allodynia”. For the same compound, in [1] (assessed on days 12 and 16), the cold hyperalgesia result is listed as “did not have an effect” and the “development of mechanical allodynia” value is reported as “did not have an effect”. Moreover, the “development of lowered pain threshold” value in assay [1] (intrathecal twice-daily on post-operative days 8-11, any day of the test) is “did not inhibit development of lowered pain threshold”.

For the compound `Cc1c(C(=O)N(C)C2CCCCC2)sc2nc3ccc(N)cc3n12.Cl.Cl` [compound A, 6-amino-N-cyclohexyl-N, 3-dimethylthiazolo[3,2-a]benzoimidazole-2-carboxamide dihydrochloride], the “agonist or antagonist activity for mGluR7” value at mGluR7 is on record as “did not show any agonist or antagonist activity”. In addition, the “reaction latency in tail pinch test” value in [2] (30 mg/kg po) is “significantly prolonged the reaction latency”. For the same compound, the “agonist or antagonist activity for mGluR6” value at mGluR6 is “did not show any agonist or antagonist activity”. For the same compound, the “mechanical pain threshold in the operated side hindpaw (VFH test)” value in [3] is reported as “improved lowered mechanical pain thresholds”. Also, the “agonist or antagonist activity for mGluR2” value at mGluR2 is “did not show any agonist or antagonist activity”. The “agonist or antagonist activity for mGluR5” value at mGluR5a was “did not show any agonist or antagonist activity”. The IC50 on mGluR1 was found to be 22 nM.

Regarding `C[C@H]1CCCC[C@H]1N(C)C(=O)c1cn2c(nc3ccc(N)cc32)s1.Cl.Cl` [compound B, (+)-(1R,2S)-6-amino-N-methyl-N-(2-methylcyclohexyl)thiazolo [3,2-a]benzoimidazole-2-carboxamide dihydrochloride], in assay [2] (10 mg/kg po), the “reaction latency in tail pinch test” value is given as “significantly prolonged the latency”. The IC50 is 1.7 nM at mGluR1 α and 2 nM against mGluR1.
